Experiments:
[1] = system: MATIN; experiment: Post-emergence herbicidal action against MATIN; assay type: in vivo, Matricaria inodora; settings: Tripleurospermum inodorum, 504 h; for pest or weed control at 20 g/ha: dosage 20 g/ha; for pest or weed control at 80 g/ha: dosage 80 g/ha; for pest or weed control at 5 g/ha: dosage 5 g/ha
Method in brief: (§1)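 A WP or EC formulation diluted in water with 0.2% wetting agent was sprayed at 600 to 800 l/ha onto one-leaf-stage plants grown in sandy loam. About 3 weeks later, action was rated visually in percent, 100% being dead plants.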

[2] = system: AVEFA; experiment: Post-emergence herbicidal action against AVEFA; assay type: in vivo, Avena fatua; settings: Avena fatua, 504 h, visual assessment about 3 weeks after treatment, 100% = plants have died, 0% = like control plants
Method in brief: as §1

[3] = system: DIGSA; experiment: Pre-emergence herbicidal action against DIGSA; assay type: in vivo, Digitaria sanguinalis; settings: Digitaria sanguinalis, 504 h; for pest or weed control at 80 g/ha: dosage 80 g/ha; for pest or weed control at 320 g/ha: dosage 320 g/ha; for pest or weed control at 20 g/ha: dosage 20 g/ha
Method in brief: (§2)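 Greenhouse pots of sandy loam held seeds covered with soil, onto which the compound was applied before emergence. An aqueous suspension or emulsion of WP or EC was used at 600 to 800 l/ha with 0.2% wetting agent. Percent damage was judged visually at 3 weeks.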

[4] = system: ALOMY; experiment: Post-emergence herbicidal action against ALOMY; assay type: in vivo, Alopecurus myosuroides; settings: Alopecurus myosuroides, 504 h, visual assessment about 3 weeks after treatment vs untreated controls; for pest or weed control at 20 g/ha: dosage 20 g/ha; for pest or weed control at 80 g/ha: dosage 80 g/ha; for pest or weed control at 5 g/ha: dosage 5 g/ha
Method in brief: as §1

[5] = system: ECHCG; experiment: Post-emergence herbicidal action against ECHCG; assay type: in vivo, Echinochloa crus-galli; settings: Echinochloa crus-galli, 504 h; for pest or weed control at 20 g/ha: dosage 20 g/ha; for pest or weed control at 80 g/ha: dosage 80 g/ha; for pest or weed control at 5 g/ha: dosage 5 g/ha
Method in brief: as §1

[6] = system: DIGSA; experiment: Post-emergence herbicidal action against DIGSA; assay type: in vivo, Digitaria sanguinalis; settings: Digitaria sanguinalis, 504 h
Method in brief: as §1

[7] = system: harmful plants; experiment: Comparative experiments: herbicidal post-emergence action versus compounds known from D1 (WO 2012/028579 A1); assay type: in vivo; design: key to Herbicidal action against ALOMY / Herbicidal action against AVEFA / Herbicidal action against LOLRI / Herbicidal action against MATIN / Herbicidal action against HORMU / Herbicidal action against ECHCG / Herbicidal action against SETVI / Herbicidal action against ABUTH / Herbicidal action against STEME / Herbicidal action against VIOTR / Herbicidal action against AMARE: % herbicidal action: 100 = plants died, 0 = like untreated control; settings: 20 g a.i./ha
Experimental: Seeds of monocotyledonous and dicotyledonous weed and crop plants are laid out in sandy loam soil in wood-fiber pots, covered with soil and cultivated in a greenhouse under good growth conditions. 2 to 3 weeks after sowing, the test plants are treated at the one-leaf stage. The compounds of the invention, formulated in the form of wettable powders (WP) or as emulsion concentrates (EC), are then sprayed onto the green parts of the plants in the form of an aqueous suspension or emulsion at a water application rate equivalent to 600 to 800 l/ha, with addition of 0.2% wetting agent. After the test plants have been left to stand in the greenhouse under optimal growth conditions for about 3 weeks, the action of the preparations is assessed visually in comparison to untreated controls (herbicidal action in percent (%): 100% activity=the plants have died, 0% activity=like control plants). […] The tables below illustrate, in an illustrative manner, the post-emergence herbicidal action of the compounds of the invention, the herbicidal activity being stated in percent. In the experiments that follow, herbicidal action of numerous inventive compounds and the structurally closest compounds known from D1 (WO 2012/028579 A1) were compared under the above-specified conditions by the pre-emergence and post-emergence method. The example numbers given in the tables relate to the compounds disclosed in the respective documents.

[8] = system: PHBPU; experiment: Pre-emergence herbicidal action against PHBPU; assay type: in vivo, Pharbitis purpurea; settings: Ipomoea purpurea, 504 h; for pest or weed control at 80 g/ha: dosage 80 g/ha; for pest or weed control at 320 g/ha: dosage 320 g/ha
Method in brief: as §2

[9] = system: CYPES; experiment: Pre-emergence herbicidal action against CYPES; assay type: in vivo; settings: Cyperus esculentus, 504 h
Excerpt: Seeds of monocotyledonous and dicotyledonous weed plants and crop plants are laid out in sandy loam soil in wood-fiber pots and covered with soil. The compounds of the invention, formulated in the form of wettable powders (WP) or as emulsion concentrates (EC), are then applied to the surface of the covering soil in the form of an aqueous suspension or emulsion at a water application rate equivalent to 600 to 800 l/ha, with addition of 0.2% wetting agent. After the treatment, the pots are placed in a greenhouse and kept under good growth conditions for the trial plants. The damage to the test plants is scored visually after a test period of 3 weeks by comparison with untreated controls (herbicidal activity in percent (%): 100% activity=the plants have died, 0% activity=like control plants). […] The tables below illustrate, in an illustrative manner, the post-emergence herbicidal action of the compounds of the invention, the herbicidal activity being stated in percent.

Row | SMILES | pest or weed control at 20 g/ha [1] [%] | pest or weed control at 80 g/ha [1] [%] | pest or weed control at 80 g/ha [2] [%] | pest or weed control at 80 g/ha [3] [%] | pest or weed control at 320 g/ha [3] [%] | pest or weed control at 20 g/ha [4] [%] | pest or weed control at 80 g/ha [4] [%] | pest or weed control at 20 g/ha [5] [%] | pest or weed control at 80 g/ha [5] [%] | pest or weed control at 20 g/ha [6] [%] | pest or weed control at 80 g/ha [6] [%] | pest or weed control at 20 g/ha [2] [%] | pest or weed control at 20 g/ha [3] [%] | also measured
1 | CNC(=O)c1c(C(F)(F)F)ccc(C(=O)Nc2nnnn2C)c1SC [Example 1-81] | 80 | 100 | 90 | 100 | 100 | 80 | 90 | 80 | 90 | 80 | 90 | – | – | –
2 | CNC(=O)c1c(C(F)F)ccc(C(=O)Nc2nnnn2C)c1Cl [Example 1-147] | 100 | 100 | 90 | 100 | 100 | 80 | 90 | 90 | 90 | 90 | 90 | 90 | – | Herbicidal action against ALOMY [7]: 80; Herbicidal action against AVEFA [7]: 90; Herbicidal action against MATIN [7]: 100; Herbicidal action against PHBPU [7]: 80; Herbicidal action against POLCO ([7]; POLCO): 90; Herbicidal action against VIOTR ([7]; VIOTR): 70
3 | CCNC(=O)c1c(C(F)F)ccc(C(=O)Nc2nnnn2C)c1Cl [Example 1-148] | 100 | 100 | 100 | 100 | 100 | 80 | 90 | 80 | 80 | 90 | 90 | 100 | – | –
4 | CCc1c(C(=O)Nc2nnnn2C)ccc(C(F)(F)F)c1C(=O)NC1CC1 [Example 1-273] | 100 | – | – | 100 | – | 100 | – | 90 | – | 90 | – | 90 | 100 | pest or weed control at 5 g/ha [1]: 100%; pest or weed control at 5 g/ha [4]: 80%; pest or weed control at 80 g/ha [8]: 100%; pest or weed control at 5 g/ha [5]: 80%; pest or weed control at 5 g/ha [6]: 90%
5 | CCn1nnnc1NC(=O)c1ccc(C(F)(F)F)c(C(=O)NC2CC2)c1C [Example 2-27] | 100 | – | – | 100 | – | 90 | – | 100 | – | 100 | – | 100 | 100 | pest or weed control at 5 g/ha [1]: 100%; pest or weed control at 5 g/ha ([2]; 5 g/ha): 90%; pest or weed control at 5 g/ha [4]: 80%; pest or weed control at 20 g/ha ([8]; dosage 20 g/ha): 80%; pest or weed control at 80 g/ha [8]: 90%; pest or weed control at 5 g/ha [5]: 80%; pest or weed control at 5 g/ha [6]: 100%
6 | CCn1nnnc1NC(=O)c1ccc(C(F)(F)F)c(C(=O)NC)c1SC [Example 2-81] | 100 | 100 | 100 | 100 | 100 | 80 | 90 | 90 | 90 | 90 | 90 | 90 | – | –
7 | CCNC(=O)c1c(C(F)(F)F)ccc(C(=O)Nc2nnnn2CC)c1SC [Example 2-82] | 90 | 90 | 90 | 100 | 100 | – | 90 | 80 | 80 | 90 | 90 | 90 | – | –
8 | CCn1nnnc1NC(=O)c1ccc(C(F)F)c(C(=O)NC)c1Cl [Example 2-147] | 100 | 100 | 100 | 100 | 100 | 80 | 90 | 90 | 90 | 90 | 90 | 90 | – | Herbicidal action against ALOMY [7]: 80; Herbicidal action against AVEFA [7]: 90; Herbicidal action against HORMU ([7]; HORMU): 80; Herbicidal action against LOLRI ([7]; LOLRI): 70; Herbicidal action against MATIN [7]: 100; Herbicidal action against PHBPU [7]: 70
9 | CCNC(=O)c1c(C(F)F)ccc(C(=O)Nc2nnnn2CC)c1Cl [Example 2-148] | 90 | 90 | 90 | 100 | 100 | 80 | 90 | 80 | 90 | 90 | 90 | 90 | – | –
10 | CCn1nnnc1NC(=O)c1ccc(Cl)c(C(=O)NC2CC2)c1Cl [Example 2-173] | 100 | – | – | 100 | – | 100 | – | 90 | – | 80 | – | 100 | 100 | pest or weed control at 80 g/ha [8]: 90%; pest or weed control at 5 g/ha [5]: 80%
11 | CCn1nnnc1NC(=O)c1ccc(C(F)(F)F)c(C(=O)NC(C)=O)c1Cl [Example 2-337] | – | – | 90 | 100 | 100 | – | 90 | – | 90 | – | 90 | – | 90 | pest or weed control at 320 g/ha [8]: 90%
12 | CCn1nnnc1NC(=O)c1ccc(C(F)(F)F)c(C(N)=O)c1Cl [Example 2-338] | – | – | 100 | – | – | 80 | 100 | 80 | 100 | – | – | 80 | – | pest or weed control at 80 g/ha ([9]; 80 g/ha, scored visually after 3 weeks, 100% = plants have died, 0% = like control plants): 90%; pest or weed control at 320 g/ha ([9]; 320 g/ha): 100%; pest or weed control at 320 g/ha [8]: 80%

— US12655116B2, “Substituted isophthalic acid diamides” (Bayer Aktiengesellschaft, priority 2020, dated 2026)
